In patent US9974888B2, “Formulations for drug-coated medical devices” (priority 2010, dated 2018):

Test: Dye loss from coated membranes type P in stirred saline
Type: physicochemical
Conditions: water-soluble dye, stirred saline at 37° C., 5 min
Text: Membranes type P were coated either with a water-soluble dye without resveratrol or combined with resveratrol.

SMILES: Oc1ccc(C=Cc2cc(O)cc(O)c2)cc1 [Resveratrol, resveratrol]
- adhesion of the dye: significantly improved the adhesion of the dye
